In patent publication US9334229B2, “Hydroxytyrosol derivatives, their method of preparation and use in personal care” (Eastman Chemical Company, priority 2013, dated 2016):

Legend:
[1] = target: T1, Novozyme 435 (Candida antarctica lipase B immobilized on an acrylic resin) (Moesziomyces antarcticus, UniProt P41365); assay: Enzymatic hydrolysis with Novozyme 435 in toluene / pH 7 phosphate buffer, conversion to hydroxytyrosol by HPLC; assay type: in vitro ADME; conditions: 100 mg compound, 100 mg Novozyme 435, toluene / pH 7 phosphate buffer, LC analysis
T1 construct: purchased Novozyme 435
Procedure: (§1) 3,4-Bis(ethoxycarbonyloxy)phenethyl palmitate (100 mg; 0.186 mmol) was dissolved in 2 mL of toluene. Novozyme 435 (Candida antarctica lipase B immobilized on an acrylic resin) (100 mg) was added followed by 2 mL of pH 7 phosphate buffer. The mixture was stirred vigorously and periodically analyzed by HPLC. After 24 h, LC analysis indicated 75.4% conversion of Compound 2 to hydroxytyrosol. After 48 h, LC analysis indicated 82.6% conversion of Compound 2 to hydroxytyrosol.
as §1, with “Hydroxytyrosol trihexanoate from Comparative Example 8” for “3,4-Bis(ethoxycarbonyloxy)phenethyl palmitate”, “0.223” for “0.186”, “resin)(100” for “resin) (100”, “<1%” for “75.4%”, “hydroxytyrosol trihexanoate” for “Compound 2”, “<1%” for “82.6%”

[2] = Control reaction without enzyme (toluene / pH 7 phosphate buffer); assay type: physicochemical
Procedure: as §1, with “Novozyme 435 (Candida antarctica lipase B immobilized on an acrylic resin) (100 mg) was added followed by 2 mL of pH 7 phosphate buffer.” left out

T1 sequence (P41365 26-342): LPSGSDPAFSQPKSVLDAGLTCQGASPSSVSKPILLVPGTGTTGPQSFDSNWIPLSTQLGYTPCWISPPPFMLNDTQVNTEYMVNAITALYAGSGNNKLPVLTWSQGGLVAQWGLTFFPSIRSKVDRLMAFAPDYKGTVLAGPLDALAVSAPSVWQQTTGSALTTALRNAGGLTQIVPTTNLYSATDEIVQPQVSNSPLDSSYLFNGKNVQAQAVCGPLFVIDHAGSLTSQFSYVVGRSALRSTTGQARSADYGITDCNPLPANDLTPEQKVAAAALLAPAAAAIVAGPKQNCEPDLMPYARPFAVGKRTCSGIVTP

Structure (SMILES)	Enzymatic conversion to hydroxytyrosol ([1]; after 24 h) [%]	Enzymatic conversion to hydroxytyrosol ([1]; after 24 h, listed as hydroxytyrosol trihexanoate) [%]	Enzymatic conversion to hydroxytyrosol ([1]; after 48 h) [%]	Enzymatic conversion to hydroxytyrosol ([1]; after 48 h, listed as hydroxytyrosol trihexanoate) [%]	conversion to hydroxytyrosol in control reaction without enzyme [2]
CCCCCC(=O)OCCc1ccc(OC(=O)CCCCC)c(OC(=O)CCCCC)c1 [Hydroxytyrosol trihexanoate, Hydroxytyrosol Trihexanoate]	<1	< 1	<1	< 1	–
CCCCCCCCCCCCCCCC(=O)OCCc1ccc(OC(=O)OCC)c(OC(=O)OCC)c1 [Compound 2, 3,4-Bis(ethoxycarbonyloxy)phenethyl palmitate]	–	–	–	–	no conversion
